{"source": "patent US9828381B2", "about": "“Substituted pyrazolopyrimidines and method of use” (AbbVie Deutschland GmbH & Co. KG, priority 2015, dated 2017)", "molecular_target": "GABA-B receptor (Rattus norvegicus (Rat), UniProt O88871+Q9Z0U4)", "sequence (Q9Z0U4 17-960)": "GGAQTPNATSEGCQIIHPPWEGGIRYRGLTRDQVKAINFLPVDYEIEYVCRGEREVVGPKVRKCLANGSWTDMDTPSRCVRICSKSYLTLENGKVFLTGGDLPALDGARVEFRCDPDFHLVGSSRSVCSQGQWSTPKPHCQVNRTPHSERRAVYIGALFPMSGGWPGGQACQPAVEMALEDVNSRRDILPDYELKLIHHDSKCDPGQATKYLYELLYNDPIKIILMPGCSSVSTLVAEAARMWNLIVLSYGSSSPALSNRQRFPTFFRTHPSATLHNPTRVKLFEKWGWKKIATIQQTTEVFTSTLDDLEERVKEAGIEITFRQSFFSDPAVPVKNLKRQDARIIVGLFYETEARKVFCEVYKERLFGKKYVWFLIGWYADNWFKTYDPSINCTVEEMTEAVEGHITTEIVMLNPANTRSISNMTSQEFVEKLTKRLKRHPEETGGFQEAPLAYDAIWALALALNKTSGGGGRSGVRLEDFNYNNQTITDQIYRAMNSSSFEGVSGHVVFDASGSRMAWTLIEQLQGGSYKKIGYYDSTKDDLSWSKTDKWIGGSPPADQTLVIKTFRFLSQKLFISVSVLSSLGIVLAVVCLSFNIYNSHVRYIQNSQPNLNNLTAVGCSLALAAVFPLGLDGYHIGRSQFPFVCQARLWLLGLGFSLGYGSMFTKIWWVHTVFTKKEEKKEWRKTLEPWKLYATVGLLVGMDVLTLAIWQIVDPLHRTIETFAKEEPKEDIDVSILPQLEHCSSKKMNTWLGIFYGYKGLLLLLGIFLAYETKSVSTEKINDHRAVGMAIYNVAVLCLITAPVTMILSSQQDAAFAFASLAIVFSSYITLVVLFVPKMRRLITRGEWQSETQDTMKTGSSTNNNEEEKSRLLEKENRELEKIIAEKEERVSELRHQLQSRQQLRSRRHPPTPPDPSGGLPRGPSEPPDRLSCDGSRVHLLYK", "sequence (O88871 41-940)": "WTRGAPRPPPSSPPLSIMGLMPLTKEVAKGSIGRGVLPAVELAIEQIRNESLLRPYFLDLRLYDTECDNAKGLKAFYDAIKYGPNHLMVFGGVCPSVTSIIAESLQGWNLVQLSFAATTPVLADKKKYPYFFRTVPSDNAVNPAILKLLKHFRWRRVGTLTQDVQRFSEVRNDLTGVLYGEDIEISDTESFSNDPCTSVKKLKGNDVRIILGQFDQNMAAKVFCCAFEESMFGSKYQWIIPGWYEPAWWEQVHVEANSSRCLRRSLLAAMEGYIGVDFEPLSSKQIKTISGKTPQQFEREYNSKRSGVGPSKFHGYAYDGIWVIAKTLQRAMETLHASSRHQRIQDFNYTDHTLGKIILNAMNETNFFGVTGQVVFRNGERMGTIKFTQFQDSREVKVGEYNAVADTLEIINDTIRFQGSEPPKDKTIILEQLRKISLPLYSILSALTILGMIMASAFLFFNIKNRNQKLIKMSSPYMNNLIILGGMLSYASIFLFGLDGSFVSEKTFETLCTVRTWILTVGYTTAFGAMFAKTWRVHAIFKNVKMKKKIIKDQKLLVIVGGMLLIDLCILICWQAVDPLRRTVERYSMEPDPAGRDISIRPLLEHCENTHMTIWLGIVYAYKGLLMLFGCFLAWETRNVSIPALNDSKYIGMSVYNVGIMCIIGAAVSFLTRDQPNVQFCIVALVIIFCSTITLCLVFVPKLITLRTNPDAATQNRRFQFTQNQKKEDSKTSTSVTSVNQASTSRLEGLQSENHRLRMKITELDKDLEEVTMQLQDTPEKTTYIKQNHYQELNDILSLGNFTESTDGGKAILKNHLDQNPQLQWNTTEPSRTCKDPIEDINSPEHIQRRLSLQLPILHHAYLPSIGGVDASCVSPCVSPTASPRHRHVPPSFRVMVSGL", "assay": "[35S]GTPgS binding assay, rat cortical membranes, in presence of EC25 GABA", "assay_type": "biochemical", "details": "rat brain cortex membranes; in presence of 1 μM GABA (EC25); positive allosteric modulation", "description": "Preparation of Rat Brain Membranes for Native Receptor Assays\nMembranes from rat brain cortex were prepared as described in detail by Olpe et al. and stored at concentrations of 1.66 mg/mL protein at −80° C. until required. (Olpe, H.-R, et al. Eur J Pharmacol 1990; 187: 27-38).\n[^35S] GTPgS Binding Assay\nThe composition of the assay mixtures [in a final volume of 200 μL in 96-well U-bottom plates (Greiner) was as follows: 50 mM Tris-HCl buffer, pH 7.7, 10 mM MgCl2, 0.2 mM EGTA, 2 mM CaCl2, 100 mM NaCl, 20 µM guanosine 5′-diphosphate (Sigma), 0.3 nM [^35S]GTPgS (1250 Ci/mmol (PerkinElmer)), and the test compounds at increasing concentrations (from 10 nM up to […]), […] of rat cortical membranes, and a concentration of […], that has been observed in previous experiments to correspond to the EC25, a concentration that gives 25% of the maximal response of GABA. The samples were incubated at room temperature for 60 minutes on a shaker. The incubation was stopped by rapid vacuum filtration over glass-fiber filter plates (UniFilter-96 well, GF/B membrane plates, PerkinElmer) using a 96-well plate harvester (TOMTEK© Harvester). The UniFilter plate was washed five times with ice-cold wash buffer (50 mM Tris-HCl buffer, pH 7.7, 10 mM MgCl2, and 100 mM NaCl. After filtration the plate was dried for 90 minutes at 55° C. The plates were closed on the bottom with black sealing membranes, and liquid scintillation cocktail (35 μL, Betaplate Scint, PerkinElmer) was added to each well. After sealing the top of the plate, an additional incubation step of 90 minutes at room temperature followed before measuring the plate. The amount of membrane-bound [^35S]GTPgS was measured using a 96-well plate reader (Microbeta®, PerkinElmer). Nonspecific binding was measured in the presence of unlabeled 10 μM of GTPgS (Millipore) and without GABA. Basal binding was measured in the absence of 1 μM GABA, and maximal binding was measured in the presence of GABA using 1 mM GABA concentrations.\nData analysis. The concentration-response curves of compounds of the present disclosure in the presence of EC25 of GABA-B receptor agonist were generated using the GraphPad Prism® program (GraphPad Software, San Diego, Calif.). Data was normalized using basal binding as 0% and maximal binding as 100%. The curves were fitted by nonlinear regression allowing determination of EC50 values from sigmoidal dose-response curves. Each curve was performed using triplicate sample per date point and 10 concentrations."}
{"smiles": "Cc1cc(NC2(C(F)(F)F)CC2)n2nc(Cc3ccc(Cl)cc3)cc2n1", "note": "[Example 1-15, 2-(4-chlorobenzyl)-5-methyl-N-[1-(trifluoromethyl)cyclopropyl]pyrazolo[1,5-a]pyrimidin-7-amine]", "values": [{"measurement": "EC50", "result": 1180, "unit": "nM"}]}
{"smiles": "Cc1cc(N2CCCC(C(N)=O)C2)n2nc(Cc3ccc(Cl)cc3)cc2n1", "note": "(stereo not shown) [Example 1-19, 1-[2-(4-chlorobenzyl)-5-methylpyrazolo[1,5-a]pyrimidin-7-yl]piperidine-3-carboxamide]", "values": [{"measurement": "EC50", "result": 10000, "unit": "nM"}]}
{"smiles": "Cc1cc(NCC(F)(F)F)n2nc(Cc3ccc(Cl)cc3)cc2n1", "note": "[Example 1-16, 2-(4-chlorobenzyl)-5-methyl-N-(2,2,2-trifluoroethyl)pyrazolo[1,5-a]pyrimidin-7-amine]", "values": [{"measurement": "EC50", "result": "> 10000", "unit": "nM"}]}
{"smiles": "Cc1cc(NC(C)(C)C)n2nc(C(C)c3ccc(Cl)cn3)cc2n1", "note": "(stereo not shown) [Example 9-6, N-tert-butyl-2-[1-(5-chloropyridin-2-yl)ethyl]-5-methylpyrazolo[1,5-a]pyrimidin-7-amine]", "values": [{"measurement": "EC50", "result": 798, "unit": "nM"}]}
{"smiles": "Cc1cc(N2CC[C@@H](NS(C)(=O)=O)C2)n2nc(Cc3ccc(Cl)cc3)cc2n1", "note": "[Example 10-1, N-{(3R)-1-[2-(4-chlorobenzyl)-5-methylpyrazolo[1,5-a]pyrimidin-7-yl]pyrrolidin-3-yl}methanesulfonamide]", "values": [{"measurement": "EC50", "result": "> 10000", "unit": "nM"}]}
{"smiles": "Cc1cc(NC2CC(F)(F)C2)n2nc(C(C)c3ccc(C(F)(F)F)cc3)cc2n1", "note": "(stereo not shown) [Example 8-20, N-(3,3-difluorocyclobutyl)-5-methyl-2-{1-[4-(trifluoromethyl)phenyl]ethyl}pyrazolo[1,5-a]pyrimidin-7-amine]", "values": [{"measurement": "EC50", "result": 500, "unit": "nM"}]}
{"smiles": "Cc1cc(N2CCC[C@H](O)C2)n2nc(Cc3ccc(Cl)cc3)cc2n1", "note": "[Example 1-6, (3S)-1-[2-(4-chlorobenzyl)-5-methylpyrazolo[1,5-a]pyrimidin-7-yl]piperidin-3-ol]", "values": [{"measurement": "EC50", "result": 974, "unit": "nM"}]}
{"smiles": "Cc1cc(N2CCC(F)CC2)n2nc(C(C)c3ccc(C(F)(F)F)cc3)cc2n1", "note": "(stereo not shown) [Example 8-11, 7-(4-fluoropiperidin-1-yl)-5-methyl-2-{1-[4-(trifluoromethyl)phenyl]ethyl}pyrazolo[1,5-a]pyrimidine]", "values": [{"measurement": "EC50", "result": 378, "unit": "nM"}]}
{"smiles": "CCCC(c1ccc(Cl)cc1)c1cc2nc(C)cc(N3CCCC(F)(F)C3)n2n1", "note": "(stereo not shown) [Example 5-2, 2-[1-(4-chlorophenyl)butyl]-7-(3,3-difluoropiperidin-1-yl)-5-methylpyrazolo[1,5-a]pyrimidine]", "values": [{"measurement": "EC50", "result": 7, "unit": "nM"}]}
{"smiles": "Cc1cc(N2CCC3(CC2)COC3)n2nc(C(C)c3ccc(C(F)(F)F)cc3)cc2n1", "note": "(stereo not shown) [Example 8-21, 5-methyl-7-(2-oxa-7-azaspiro[3.5]non-7-yl)-2-{1-[4-(trifluoromethyl)phenyl]ethyl}pyrazolo[1,5-a]pyrimidine]", "values": [{"measurement": "EC50", "result": 561, "unit": "nM"}]}
{"smiles": "CC(=O)N[C@H]1CCN(c2cc(C)nc3cc(C(C)c4ccc(Cl)cc4)nn23)C1", "note": "(stereo partly drawn) [Example 2-17, N-[(3S)-1-{2-[1-(4-chlorophenyl)ethyl]-5-methylpyrazolo[1,5-a]pyrimidin-7-yl}pyrrolidin-3-yl]acetamide]", "values": [{"measurement": "EC50", "result": 2180, "unit": "nM"}]}
{"smiles": "Cc1cc(N2CCCCC2CO)n2nc(C(C)c3ccc(C(F)(F)F)cc3)cc2n1", "note": "(stereo not shown) [Example 8-9, [1-(5-methyl-2-{1-[4-(trifluoromethyl)phenyl]ethyl}pyrazolo[1,5-a]pyrimidin-7-yl)piperidin-2-yl]methanol]", "values": [{"measurement": "EC50", "result": 344, "unit": "nM"}]}
{"smiles": "CC(=O)N[C@@H]1CCN(c2cc(C)nc3cc(C(C)c4ccc(Cl)cn4)nn23)C1", "note": "(stereo partly drawn) [Example 9-10, N-[(3R)-1-{2-[1-(5-chloropyridin-2-yl)ethyl]-5-methylpyrazolo[1,5-a]pyrimidin-7-yl}pyrrolidin-3-yl]acetamide]", "values": [{"measurement": "EC50", "result": "> 10000", "unit": "nM"}]}
{"smiles": "Cc1cc(N2CCC(F)(F)C2)n2nc(C(C)c3ccc(C(F)(F)F)cc3)cc2n1", "note": "(stereo not shown) [Example 8-15, 7-(3,3-difluoropyrrolidin-1-yl)-5-methyl-2-{1-[4-(trifluoromethyl)phenyl]ethyl}pyrazolo[1,5-a]pyrimidine]", "values": [{"measurement": "EC50", "result": 570, "unit": "nM"}]}
{"smiles": "Cc1cc(N2CCC3(CCC3O)C2)n2nc(C(C)c3ccc(Cl)cc3)cc2n1", "note": "(stereo not shown) [Example 2-20, 6-{2-[1-(4-chlorophenyl)ethyl]-5-methylpyrazolo[1,5-a]pyrimidin-7-yl}-6-azaspiro[3.4]octan-1-ol]", "values": [{"measurement": "EC50", "result": 93, "unit": "nM"}]}
{"smiles": "Cc1cc(N2CCC2)n2nc(Cc3ccc(Cl)cc3)cc2n1", "note": "[Example 1-13, 7-(azetidin-1-yl)-2-(4-chlorobenzyl)-5-methylpyrazolo[1,5-a]pyrimidine]", "values": [{"measurement": "EC50", "result": "> 10000", "unit": "nM"}]}
{"smiles": "Cc1cc(N2CCCC(F)(F)C2)n2nc(C(C)c3ccc(Cl)cc3)cc2n1", "note": "(stereo not shown) [Example 2-7, 2-[1-(4-chlorophenyl)ethyl]-7-(3,3-difluoropiperidin-1-yl)-5-methylpyrazolo[1,5-a]pyrimidine]", "values": [{"measurement": "EC50", "result": 185, "unit": "nM"}]}
{"smiles": "CC[C@@H]1CN(c2cc(C)nc3cc(C(C)c4ccc(Cl)cc4)nn23)[C@H]1C(=O)O", "note": "(stereo partly drawn) [Example 2-15, (2R,3R)-1-{2-[1-(4-chlorophenyl)ethyl]-5-methylpyrazolo[1,5-a]pyrimidin-7-yl}-3-ethylazetidine-2-carboxylic acid]", "values": [{"measurement": "EC50", "result": 3930, "unit": "nM"}]}
{"smiles": "Cc1cc(N2CCCCC2CCO)n2nc(Cc3ccc(Cl)cc3)cc2n1", "note": "(stereo not shown) [Example 1-1, 2-{1-[2-(4-chlorobenzyl)-5-methylpyrazolo[1,5-a]pyrimidin-7-yl]piperidin-2-yl}ethanol]", "values": [{"measurement": "EC50", "result": 1400, "unit": "nM"}]}
{"smiles": "CC(=O)N[C@H]1CCN(c2cc(C)nc3cc(C(C)c4ccc(Cl)cn4)nn23)C1", "note": "(stereo partly drawn) [Example 9-11, N-[(3S)-1-{2-[1-(5-chloropyridin-2-yl)ethyl]-5-methylpyrazolo[1,5-a]pyrimidin-7-yl}pyrrolidin-3-yl]acetamide]", "values": [{"measurement": "EC50", "result": "> 10000", "unit": "nM"}]}
{"smiles": "Cc1cc(N[C@@H](C)C(F)(F)F)n2nc(Cc3ccc(Cl)cc3)cc2n1", "note": "[Example 1-18, 2-(4-chlorobenzyl)-5-methyl-N-[(2S)-1,1,1-trifluoropropan-2-yl]pyrazolo[1,5-a]pyrimidin-7-amine]", "values": [{"measurement": "EC50", "result": 2690, "unit": "nM"}]}
{"smiles": "Cc1cc(NC(C)(C)C)n2nc(C(C)c3ccc(C(F)(F)F)cc3)cc2n1", "note": "(stereo not shown) [Example 8-19, N-tert-butyl-5-methyl-2-{1-[4-(trifluoromethyl)phenyl]ethyl}pyrazolo[1,5-a]pyrimidin-7-amine]", "values": [{"measurement": "EC50", "result": 274, "unit": "nM"}]}
{"smiles": "Cc1cc(N2CCC3(CC2)COC3)n2nc(C(C)c3ccc(Cl)cc3)cc2n1", "note": "(stereo not shown) [Example 2-9, 2-[1-(4-chlorophenyl)ethyl]-5-methyl-7-(2-oxa-7-azaspiro[3.5]non-7-yl)pyrazolo[1,5-a]pyrimidine]", "values": [{"measurement": "EC50", "result": 604, "unit": "nM"}]}
{"smiles": "Cc1cc(NCC2CC(F)(F)C2)n2nc(C(C)c3ccc(Cl)cc3)cc2n1", "note": "(stereo not shown) [Example 2-16, 2-[1-(4-chlorophenyl)ethyl]-N-[(3,3-difluorocyclobutyl)methyl]-5-methylpyrazolo[1,5-a]pyrimidin-7-amine]", "values": [{"measurement": "EC50", "result": 586, "unit": "nM"}]}
{"smiles": "CC(=O)N[C@@H]1CCN(c2cc(C)nc3cc(C(C)c4ccc(C(F)(F)F)cc4)nn23)C1", "note": "(stereo partly drawn) [Example 8-16, N-[(3R)-1-(5-methyl-2-{1-[4-(trifluoromethyl)phenyl]ethyl}pyrazolo[1,5-a]pyrimidin-7-yl)pyrrolidin-3-yl]acetamide]", "values": [{"measurement": "EC50", "result": 2180, "unit": "nM"}]}
{"smiles": "Cc1cc(N[C@H](C)C(F)(F)F)n2nc(Cc3ccc(Cl)cc3)cc2n1", "note": "[Example 1-20, 2-(4-chlorobenzyl)-5-methyl-N-[(2R)-1,1,1-trifluoropropan-2-yl]pyrazolo[1,5-a]pyrimidin-7-amine]", "values": [{"measurement": "EC50", "result": 2150, "unit": "nM"}]}
{"smiles": "Cc1cc(N2CCCC(F)C2)n2nc(C(C)c3ccc(Cl)cc3)cc2n1", "note": "(stereo not shown) [Example 2-6, 2-[1-(4-chlorophenyl)ethyl]-7-(3-fluoropiperidin-1-yl)-5-methylpyrazolo[1,5-a]pyrimidine]", "values": [{"measurement": "EC50", "result": 242, "unit": "nM"}]}
{"smiles": "Cc1cc(N2CC[C@H]2C(=O)O)n2nc(C(C)c3ccc(C(F)(F)F)cc3)cc2n1", "note": "(stereo partly drawn) [Example 8-10, (2S)-1-(5-methyl-2-{1-[4-(trifluoromethyl)phenyl]ethyl}pyrazolo[1,5-a]pyrimidin-7-yl)azetidine-2-carboxylic acid]", "values": [{"measurement": "EC50", "result": "> 10000", "unit": "nM"}]}
